Data published in article PMC7955776 (Investigational new drugs, 2020).
Values joined by “and” are separate entries in the source; they are usually repeats but may differ in a detail not shown here. Identical values can stand only once.

Assay: Safety: adverse events graded by CTCAE v4.0
Format: in vivo, human
Conditions: with paclitaxel and carboplatin

SMILES: CC(C)(C(=O)NCC(F)(F)C(F)(F)F)C(=O)N[C@@H]1C(=O)Nc2ccccc2-c2ccccc21 [RO4929097]
- Dyspnea, Grade 2 (treatment-related AE, N = 14): 3 (21) N (%)
- Dyspnea, Grade 3 (treatment-related AE, N = 14): 0 (0) N (%)
- Dyspnea, Grade 4 (treatment-related AE, N = 14): 0 (0) N (%)
- Elevated aspartate aminotransferase, All Grades (treatment-related AE, N = 14): 6 (43) N (%)
- Elevated aspartate aminotransferase, Grade 1 (treatment-related AE, N = 14): 6 (43) N (%)
- Elevated aspartate aminotransferase, Grade 2 (treatment-related AE, N = 14): 0 (0) N (%)
- Elevated aspartate aminotransferase, Grade 3 (treatment-related AE, N = 14): 0 (0) N (%)
- Elevated aspartate aminotransferase, Grade 4 (treatment-related AE, N = 14): 0 (0) N (%)
- Epistaxis, All Grades (treatment-related AE, N = 14): 8 (57) N (%)
- Epistaxis, Grade 1 (treatment-related AE, N = 14): 7 (50) N (%)
- Epistaxis, Grade 2 (treatment-related AE, N = 14): 1 (7) N (%)
- Epistaxis, Grade 3 (treatment-related AE, N = 14): 0 (0) N (%)
- Epistaxis, Grade 4 (treatment-related AE, N = 14): 0 (0) N (%)
- Fatigue, All Grades (treatment-related AE, N = 14): 11 (79) N (%)
- Fatigue, Grade 1 (treatment-related AE, N = 14): 5 (36) N (%)
- Fatigue, Grade 2 (treatment-related AE, N = 14): 5 (36) N (%)
- Fatigue, Grade 3 (treatment-related AE, N = 14): 1 (7%) N (%) and 1 (7) N (%)
- Fatigue, Grade 4 (treatment-related AE, N = 14): 0 (0) N (%)
- Headache, All Grades (treatment-related AE, N = 14): 9 (64) N (%)
- Headache, Grade 1 (treatment-related AE, N = 14): 8 (57) N (%)
- Headache, Grade 2 (treatment-related AE, N = 14): 1 (7) N (%)
- Headache, Grade 3 (treatment-related AE, N = 14): 0 (0) N (%)
- Headache, Grade 4 (treatment-related AE, N = 14): 0 (0) N (%)
- Hyperglycemia, All Grades (treatment-related AE, N = 14): 7 (50) N (%)
- Hyperglycemia, Grade 1 (treatment-related AE, N = 14): 7 (50) N (%)
- Hyperglycemia, Grade 2 (treatment-related AE, N = 14): 0 (0) N (%)
- Hyperglycemia, Grade 3 (treatment-related AE, N = 14): 0 (0) N (%)
- Hyperglycemia, Grade 4 (treatment-related AE, N = 14): 0 (0) N (%)
- Hypertension, All Grades (treatment-related AE, N = 14): 8 (57) N (%)
- Hypertension, Grade 1 (treatment-related AE, N = 14): 4 (29) N (%)
- Hypertension, Grade 2 (treatment-related AE, N = 14): 3 (21) N (%)
- Hypertension, Grade 3 (treatment-related AE, N = 14): 1 (7%) N (%) and 1 (7) N (%)
- Hypertension, Grade 4 (treatment-related AE, N = 14): 0 (0) N (%)
- Leukopenia, All Grades (treatment-related AE, N = 14): 13 (93) N (%)
- Leukopenia, Grade 1 (treatment-related AE, N = 14): 1 (7) N (%)
- Leukopenia, Grade 2 (treatment-related AE, N = 14): 7 (50) N (%)
- Leukopenia, Grade 3 (treatment-related AE, N = 14): 5 (36) N (%)
- Leukopenia, Grade 4 (treatment-related AE, N = 14): 0 (0) N (%)
- Lymphocytopenia, All Grades (treatment-related AE, N = 14): 12 (86) N (%)
- Lymphocytopenia, Grade 1 (treatment-related AE, N = 14): 5 (36) N (%)
- Lymphocytopenia, Grade 2 (treatment-related AE, N = 14): 5 (36) N (%)
- Lymphocytopenia, Grade 3 (treatment-related AE, N = 14): 2 (14) N (%)
- Lymphocytopenia, Grade 4 (treatment-related AE, N = 14): 0 (0) N (%)
- Nausea, All Grades (treatment-related AE, N = 14): 12 (86) N (%)
- Nausea, Grade 1 (treatment-related AE, N = 14): 9 (64) N (%)
- Nausea, Grade 2 (treatment-related AE, N = 14): 3 (21) N (%)
- Nausea, Grade 3 (treatment-related AE, N = 14): 0 (0) N (%)
- Nausea, Grade 4 (treatment-related AE, N = 14): 0 (0) N (%)
- Neutropenia, All Grades (treatment-related AE, N = 14): 11 (79) N (%)
- Neutropenia, Grade 1 (treatment-related AE, N = 14): 0 (0) N (%)
- Neutropenia, Grade 2 (treatment-related AE, N = 14): 3 (21) N (%)
- Neutropenia, Grade 3 (treatment-related AE, N = 14): 6 (43%) N (%) and 6 (43) N (%)
- Neutropenia, Grade 4 (treatment-related AE, N = 14): 2 (14%) N (%) and 2 (14) N (%)
- Peripheral sensory neuropathy, All Grades (treatment-related AE, N = 14): 12 (86) N (%)
- Peripheral sensory neuropathy, Grade 1 (treatment-related AE, N = 14): 6 (43) N (%)
- Peripheral sensory neuropathy, Grade 2 (treatment-related AE, N = 14): 4 (29) N (%)
- Peripheral sensory neuropathy, Grade 3 (treatment-related AE, N = 14): 2 (14%) N (%) and 2 (14) N (%)
- Peripheral sensory neuropathy, Grade 4 (treatment-related AE, N = 14): 0 (0) N (%)
- Rash maculo-papular, All Grades (treatment-related AE, N = 14): 10 (71) N (%)
- Rash maculo-papular, Grade 1 (treatment-related AE, N = 14): 7 (50) N (%)
- Rash maculo-papular, Grade 2 (treatment-related AE, N = 14): 3 (21) N (%)
- Rash maculo-papular, Grade 3 (treatment-related AE, N = 14): 0 (0) N (%)
- Rash maculo-papular, Grade 4 (treatment-related AE, N = 14): 0 (0) N (%)
- Thrombocytopenia, All Grades (treatment-related AE, N = 14): 11 (79) N (%)
- Thrombocytopenia, Grade 1 (treatment-related AE, N = 14): 4 (29) N (%)
- Thrombocytopenia, Grade 2 (treatment-related AE, N = 14): 2 (14) N (%)
- Thrombocytopenia, Grade 3 (treatment-related AE, N = 14): 4 (29%) N (%) and 4 (29) N (%)
- Thrombocytopenia, Grade 4 (treatment-related AE, N = 14): 1 (7%) N (%) and 1 (7) N (%)
- Hospitalizations for neutropenic fevers or other treatment-related toxicities: no hospitalizations
- G3 or higher thrombocytopenia, patients (N = 5): 36%
- G3 or higher neutropenia, patients (N = 8): 57%
- Patients with Grade 2/Grade 3 neuropathy requiring dose reduction of paclitaxel (six patients): 43%
